Values of other authors as cited in US8791078B2, “Cell protection in dialysis patients by administration of a creatine compound” (Crearene Ltd., priority 2009, dated 2014).

Key:
[1] = tested on: muscle cramps associated with haemodialysis; parameters: dose or concentration left out as unconfirmed; conditions: oral, before each dialysis session for 4 weeks
[2] = tested on: serum levels of homocysteine; conditions: creatine supplementation
[3] = biological target: T1, creatine Transporter Protein (CrT) (Homo sapiens, UniProt P48029); conditions: CrT in the plasma membrane
T1 sequence (P48029 1-635): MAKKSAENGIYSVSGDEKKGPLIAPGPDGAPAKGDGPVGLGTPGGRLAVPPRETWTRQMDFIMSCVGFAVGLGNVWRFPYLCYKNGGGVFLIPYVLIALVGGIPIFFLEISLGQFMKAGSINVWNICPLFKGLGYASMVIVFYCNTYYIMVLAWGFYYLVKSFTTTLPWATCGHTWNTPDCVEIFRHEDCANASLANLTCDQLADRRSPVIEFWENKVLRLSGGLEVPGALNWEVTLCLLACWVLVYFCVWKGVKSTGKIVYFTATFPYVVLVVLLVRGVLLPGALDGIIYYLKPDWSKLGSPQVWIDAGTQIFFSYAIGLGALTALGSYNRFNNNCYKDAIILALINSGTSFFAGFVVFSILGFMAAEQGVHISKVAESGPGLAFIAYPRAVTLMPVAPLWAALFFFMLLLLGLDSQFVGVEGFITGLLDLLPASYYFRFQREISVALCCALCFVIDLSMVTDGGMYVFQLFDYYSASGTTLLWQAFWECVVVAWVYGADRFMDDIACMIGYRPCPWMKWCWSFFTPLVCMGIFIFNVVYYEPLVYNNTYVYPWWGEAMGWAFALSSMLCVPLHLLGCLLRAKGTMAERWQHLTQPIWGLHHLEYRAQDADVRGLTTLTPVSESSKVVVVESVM

[4] = tested on: total plasma homocysteine; conditions: chronic haemodialysis patients, oral creatine (2 giday)

Row | Compound | effect on muscle cramps associated with haemodialysis [1] | effect on serum levels of homocysteine [2] | Km [3] [µM] | effect on total plasma homocysteine [4]
1 | CN(CC(=O)O)C(=N)N.O [creatine monohydrate] | alleviates muscle cramps associated with haemodialysis |  |  | 
2 | CN(CC(=O)O)C(=N)N [creatine] |  | reduce serum levels of homocysteine | 25 to 30 | does not decrease total plasma homocysteine
